In patent publication US20200207820A1, “ANTIVIRAL, ANTIFIBROTIC AND ANTICANCER ACTIVITIES OF ROYAL-JELLY PROTEINS” (priority 2017, published 2020):
“Also recorded” adds a separate entry of the source.

Tests used:
[1] = Acute toxicity (Karber's method); type: in vivo, male Albino rats
Description: Karber's method was used to study the acute toxicity effect of RJ in comparison with SOV using male Albino rats and the median lethal dosage (LD50) was calculated.
Fifty-five male Albino rats (80-120 g) were purchased from MISR University for Science and Technology (animal welfare assurance number A5865-01). Animals were housed in metal cages and allowed free access to a standard commercial diet and tap water. Rats were kept under conventional conditions of temperature, humidity and twelve hours light/dark cycle. All rats were acclimatized to the laboratory environment for one week prior to handling and were observed daily for abnormal signs. Handling of animals complied with the international guide for the care and use of laboratory animals (National Research Council, 1996).
Animals were divided into eleven groups (five animals in each) starting from group I to group X beside the control (received only water as the vehicle). Groups from (I) to (V) were administered RJ intraperitoneally, while groups from (VI) to (X) were orally received SOV using the gavage tube. RJ and SOV were given to the animals at various doses (140, 350, 700, 2500 and 5000 mg/kg bw), one dose for each group of animals (group I and VI received the lowest dose).
All animals were left for 24 h after RJ or SOV administration, and then the number of mortality in each group was recorded for calculation of the LD50 value. Also, the weights of animals in each group were recorded before sacrificing by decapitation. Blood samples were collected in heparin tubes by cardiac puncture for assessment of the erythrocytes, hematocrit (HCT), hematimetric indices, hemoglobin (Hb), platelets, and leukocytes (full and differential counts). In addition, ALT and AST, total proteins, albumin, urea, creatinine, sodium, potassium, triglycerides (TG) and cholesterol were determined using available commercial kits (RAM, Egypt). The vital organs including liver, lung, kidney, and spleen were carefully excised, weighed and examined.

HepG-2 cell line = test: Anti-cancer assay (MTT); type: cell-based, human; settings: HepG-2 cells, 72 h
Description: The cytotoxic effect of RJ and its isolated PFs against HepG-2 cell line were evaluated. The cell viability was determined by MTT assay to investigate the cytotoxicity. Cells (3×10^3/well) were seeded in 96-well plate and left to attach for overnight. Serial concentrations (6.25-100 μM) of each of the tested compounds were added to the attached cells and incubated for 72 h at 37° C. in an atmosphere of 5% CO2 and the untreated cells were included as negative control. Then, 20 μl of MTT solution (0.5 mg/ml) was added to each well and the plate was incubated at 37° C. and 5% CO2 for 4 h. The medium with MTT was replaced by 150 μl of DMSO and the absorbance of the produced color was read at 570 nm by the microplate reader. The concentration of each of the studied compounds that inhibit the cancer cell growth by 50% (IC50 values) was determined from the dose-response curves. Additionally, the morphological changes of the tumor cells were examined using the phase-contrast microscope.

HCV [2] = test: Quantitative analysis of intracellular HCV-RNA (Cobas Ampliprep TaqMan); type: cell-based, Hepatitis C virus; settings: PBMCs and HepG-2 cells, 72 h; SOV in PBMCs only
Description: (§1) PBMCs were obtained by Ficoll-Hypaque density gradient centrifugation method as described previously. In brief, the blood samples from healthy volunteers were diluted with equal volume of PBS, carefully layered on Ficoll-Hypaque, and centrifuged at 2000 rpm, 25° C. for 30 min. Then the undisturbed PBMCs layer (interface) was carefully transferred out, washed with 40 ml RPMI-1640 medium, and centrifuged at 1650 rpm for 10 min. Finally, the supernatant was removed and the cells were suspended in 5 ml of RPMI-1640 medium containing 10% FBS and counted using trypan blue stain.
(§2) HepG-2 cells were grown in RPMI-1640 medium (HyClone) supplemented with 10% heat-inactivated FBS.
(§3) Serum samples were obtained from HCV and HBV infected […] patients […] after agreement by the ethics committee. The HCV and HBV samples were positive for genotype 4a and D, respectively. The infected patients were neither under treatment prior to the study nor co-infected. The sera were kept at −80° C. until use. […]
(§4) SOV at the concentration of 4 mg was incubated only with HCV or HBV-infected PBMCs due to its potent anti-cancer effect. […] Then the HCV-RNA and HBV-DNA within these cells were quantified using the fully automated Cobas Ampliprep TaqMan Analyzer (CAP-CTM). This technique is one of the most recent techniques that used for diagnosis of viral hepatitis quantitatively. […]

HBV = test: Quantitative analysis of intracellular HBV-DNA (Cobas Ampliprep TaqMan); type: cell-based, hepatitis B virus; settings: PBMCs and HepG-2 cells, 72 h; SOV in PBMCs only
Description: as §1, §2, §3, §4

hepatocytes = test: In vitro assessment of liver fibrosis: CCl4-induced fibrosis in hepatocytes; type: cell-based, Albino rats
Description: Hepatocytes were isolated from the liver of two male Albino rats 1 week of age. Rats were anesthetized, then liver was dissected, washed and incubated for 15 min with 10× penicillin and streptomycin. Afterward, the liver was washed using PBS, minced and incubated for 30 min with 3 U/mL of collagenase I with gentle shaking to obtain the cell suspension. The solution was centrifuged for […] at 1000 rpm and the pellet (hepatocytes) was washed, suspended in William's E medium containing 10% FBS and incubated at […] in CO2 incubator. After 90% cell confluent, hepatocytes were passaged with trypsin-EDTA. Then cells were stained with trypan blue, checked for viability and counted using the phase contrast inverted microscope (Olympus IX 81, Tokyo, Japan).
For induction of fibrosis, hepatocytes were incubated with various concentrations (0.13-1.30 mM) of CCl4 for 48 h. At the end of the incubation period, the cell viability was assessed and the IC50 value (half maximal inhibitory concentration of CCl4 to the hepatocytes growth) was calculated by the GraphPad Instat software version 3. This value was used for in vitro induction of fibrosis in hepatocytes (FM). After induction, Fb1 was incubated with the safe concentration of each of the studied compounds and incubated for 72 h at 5% CO2 and 37° C. The normal cells and the untreated Fb1 (Fb) were involved as negative and positive control cells, respectively.
At the end of the incubation period, media were collected and used in the assessment of the hepatocyte damage indices. However, cells were examined morphologically for identification of apoptosis.
Alanine and aspartate aminotransferases (ALT and AST), and albumin were determined using available commercial kits (RAM, Egypt). TNF-α (ELISA kit, RayBiotech, USA) and collagen IV (ELISA kit, Kamiya Biomedical) were determined following the manufacturer's instructions. Nitric oxide (NO) level was assessed by measurement of the nitrite using the Griess reaction, which produced colored azo dye with a maximum absorbance at 490 nm. Hydroxyproline content in the medium was measured using chloramines T and […] solutions. The absorbance of the produced color was read spectrophotometrically at 560 nm and the concentration was determined from the hydroxyproline calibration curve.
Apoptosis was investigated by double staining cells after washing with PBS with 100 μg/mL of ethidium bromide (EB) and acridine orange (AO) as described previously and then visualized under the fluorescent phase contrast microscope.

HCV [3] = test: Qualitative screening for HCV (+) strand RNA by RT-nested PCR in infected PBMCs and HepG-2 cells; type: cell-based, Hepatitis C virus; settings: HCV-infected PBMCs and HepG-2 cells, 72 h; RJ 0.2 and 1 mg, PFs 1 mg, MRJPs 250 μg, SOV 4 mg (PBMCs only)
Description: as §1, §2, §3
After cellular infection, the infected medium was replaced with a fresh RPMI-1640 medium containing 10% FBS for positive control wells. […] The HCV (+) strand was detected by reverse transcription-nested polymerase chain reaction (RT-nested PCR) using the Ready-To-Go RT-PCR beads (Amersham Pharmacia Biotech, Piscataway, N.J., USA) following the instructions. […]

[4] = SOV oral 2500 and 5000 mg/kg bw

## CC(C)OC(=O)[C@H](C)N[P@](=O)(OC[C@H]1O[C@@H](n2ccc(=O)[nH]c2=O)[C@](C)(F)[C@@H]1O)Oc1ccccc1 [SOV, Sofosbuvir]
[1]; 24 h, all doses, versus control group
  body weights: didn't cause any significant change; also recorded: no significant change
[1]; 24 h after administration
  hematological parameters: Slight changes
[1]; SOV 350-5000 mg/kg bw
  serum urea level: significant elevation
[1]; SOV 2500, 5000 mg/kg bw
  potassium level: depleted
  serum sodium level: elevated
[1]; SOV 2500 and 5000 mg/kg bw
  ALT activity: didn't affect
  activity of AST: significantly elevated
  serum level of albumin: significantly reduce
  total proteins level: didn't affect
[1]; SOV nearly at all doses
  TG level: significantly increased
  cholesterol level: significantly increased
[1]; SOV oral 350 to 5000 mg/kg bw
  % organ-body weight ratio, spleen: enlargement
[1]; [4]
  % organ-body weight ratio, liver: significant enlargement
  % organ-body weight ratio, lung: significant enlargement
[1]; SOV oral all given doses (140-5000 mg/kg bw)
  % organ-body weight ratio, kidney: significant enlargement
[1]; after 24 h, all studied doses (140-5000 mg/kg bw), RJ intraperitoneal, SOV oral
  mortality: no mortality
[1]; rats, all the studied doses
  toxic dose: ≥ 140 mg/kg
[1]; rats, liver, lung, kidney, spleen
  toxicity on vital organs: highly toxic effects on kidney, spleen and lung and less toxicity on the liver; also recorded: highly toxic
HepG-2 cell line
  cytotoxic (anticancer) effect: potent activity
HepG-2 cell line; listed as Sovaldi
  cytotoxic (anticancer) effect: more potent anticancer effect than the RJ proteins
HCV [2]
  efficacy against HCV (intracellular HCV): less anti-HCV
HBV
  efficacy against HBV / activity of HBV (intracellular HBV): increases the activity of HBV
hepatocytes; CCl4-induced fibrosis in hepatocytes (Fb1)
  collagen and hydroxyproline levels: suppressive effect
hepatocytes; CCl4-induced fibrosis in hepatocytes, compared with SM and SOV
  antifibrotic / therapeutic effect overall: less antifibrotic activities
hepatocytes; fibrotic cells (Fb1)
  inflammatory mediators' level (NO and TNF-α): anti-inflammatory effect
hepatocytes; fibrotic hepatocytes (Fb1), 72 h treatment, 200 μg/mL
  hepatocytes morphology / apoptosis (acridine orange/ethidium bromide staining): less potency
HCV [3]
  anti-HCV effect (HCV (+) strand RNA, RT-nested PCR): anti-HCV effect

B1: MRJP2: major royal jelly protein 2, bound protein purified from PF50 by CM-Sephadex ion-exchange chromatography (protein, UniProt O77061 18-452, looked up)
Major royal jelly protein 2: AIVRENSPRNLEKSLNVIHEWKYFDYDFGSEERRQAAIQSGEYDHTKNYPFDVDQWRDKTFVTILRYDGVPSTLNVISGKTGKGGRLLKPYPDWSFAEFKDCSKIVSAFKIAIDKFDRLWVLDSGLVNRTVPVCAPKLHVFDLKTSNHLKQIEIPHDIAVNATTGKGGLVSLAVQAIDLANTLVYMADHKGDALIVYQNADDSFHRLTSNTFDYDPRYAKMTIDGESFTLKNGICGMALSPVTNNLYYSPLASHGLYYVNTAPFMKSQFGENNVQYQGSEDILNTQSLAKAVSKNGVLFVGLVGNSAVGCWNEHQSLQRQNLEMVAQNDRTLQMIAGMKIKEELPHFVGSNKPVKDEYMLVLSNRMQKIVNDDFNFDDVNFRILGANVKELIRNTHCVNNNQNDNIQNTNNQNDNNQKNNKKNANNQKNNNQNDN
HepG-2 cell line
  cytotoxic (anticancer) effect: nearly as potent as SOY and 5-FU
hepatocytes; fibrotic cells (Fb1)
  inflammatory mediators' level (NO and TNF-α): Normalization
  liver function parameters (ALT, AST, albumin) in medium: Improvement
HCV [3]
  anti-HCV effect (HCV (+) strand RNA, RT-nested PCR): anti-HCV effect
